The Ki is the dissociation constant of the complex between target and ligand, obtained from inhibition or displacement. Broadly, the EC50 is the concentration at which the effect is half-maximal. Higher therefore signals a need for much substance. Usually Emax stands for the greatest response seen or fitted, relative to the assay's reference. By pKi is commonly meant −log10 of the Ki, conventionally taken in molar units.

Results on 5 molecules are retold here after PMC3904261 (British Journal of Pharmacology, 2013).

The target of one assay is T1, AMY1(a) receptor (Homo sapiens, UniProt O60894+P30988).
T1 construct: HA; expressed in transfected cells; host or cells: Cos 7
T1 sequence (P30988 25-474): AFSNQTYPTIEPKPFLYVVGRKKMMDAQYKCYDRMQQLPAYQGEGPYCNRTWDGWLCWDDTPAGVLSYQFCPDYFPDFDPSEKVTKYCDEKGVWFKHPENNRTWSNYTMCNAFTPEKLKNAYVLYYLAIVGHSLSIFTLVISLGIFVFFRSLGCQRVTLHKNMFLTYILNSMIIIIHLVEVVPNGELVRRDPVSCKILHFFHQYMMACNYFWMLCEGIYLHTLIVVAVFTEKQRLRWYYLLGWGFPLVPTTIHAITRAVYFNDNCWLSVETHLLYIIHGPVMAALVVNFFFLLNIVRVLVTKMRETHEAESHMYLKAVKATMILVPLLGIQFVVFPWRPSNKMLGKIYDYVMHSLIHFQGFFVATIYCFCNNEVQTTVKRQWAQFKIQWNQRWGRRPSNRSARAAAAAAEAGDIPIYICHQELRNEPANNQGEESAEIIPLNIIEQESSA
T1 sequence (O60894 27-148): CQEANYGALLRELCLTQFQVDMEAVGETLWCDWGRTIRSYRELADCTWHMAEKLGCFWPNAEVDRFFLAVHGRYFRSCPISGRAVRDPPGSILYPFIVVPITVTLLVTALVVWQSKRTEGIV
Kind of assay: cAMP production in Cos 7 cells via the AMY1(a) receptor. The conditions noted are these: AlphaScreen, means ± SEM, n = 3–6. Format: cell-based. The protocol: SK-N-MC cells were grown in DMEM/F12 medium supplemented with 10% fetal calf serum as described previously (Poyner et al., [1998]). […] Production of cAMP in SK-N-MC cells for all analogues except [[…]]-hαCGRP was by a radioreceptor assay, as described previously (Poyner et al., [1998]). […] For [[…]]-hαCGRP, a different clone of SK-N-MC cells was used and cAMP production was measured via AlphaScreen (Perkin Elmer, Wellesley, MA, USA), as described previously ([…] et al., [2010]). This assay was also used to investigate the action of all derivatives at the AMY1(a) receptor and other experiments using Cos 7 cells. […] GraphPad Prism 5.00 or 6.00 (GraphPad Software Inc., San Diego, CA, USA) was used for data fitting. Concentration-response curves were fitted to a sigmoidal function with Hill slope constrained to unity to obtain pEC50 and maximum responses (Emax) values. Displacement curves were analysed to obtain pIC50 values. Schild plots were fitted by linear regression to obtain slope and intercepts. pEC50 and pIC50 values were compared with that of human αCGRP using Dunnett's test with either a normal or repeated measures one-way ANOVA, as appropriate.

Assay [1] deals with T2, CGRP receptor (Homo sapiens, UniProt O60894+Q16602). Kind of assay: Displacement of 125I-CGRP binding to SK-N-MC cell membranes. More on the design: relative expression levels of the receptors (endogenous vs. overexpressed); endogenous in cells; host or cells: SK-N-MC cells (ECACC clone; ATCC clone for [Cys5]-CGRP). The following applies: Binding (SK-N-MC) pKi CGRP analogue, 125I-CGRP displacement, SK-N-MC cell membranes; means ± SEM, n = 3–6; [Cys5] on a different batch of SK-N-MC cells. The protocol:
(§1) GraphPad Prism 5.00 or 6.00 (GraphPad Software Inc., San Diego, CA, USA) was used for data fitting. Concentration–response curves were fitted to a sigmoidal function with Hill slope constrained to unity to obtain pEC50 and maximum responses (Emax) values. Displacement curves were analysed to obtain pIC50 values. Schild plots were fitted by linear regression to obtain slope and intercepts. pEC50 and pIC50 values were compared with that of human αCGRP using Dunnett's test with either a normal or repeated measures one-way ANOVA, as appropriate.
Background: In a radioligand displacement assay an active substance lowers the binding of a labelled ligand.

Assay [2] deals with T2, CGRP receptor. Kind of assay: cAMP production in SK-N-MC cells. The class given is cell-based. The conditions noted are these: radioreceptor assay, approx. 10 min, means ± SEM, n = 3–6. The arrangement: relative expression levels of the receptors (endogenous vs. overexpressed); endogenous in cells; host or cells: SK-N-MC cells (ECACC clone; ATCC clone for [Cys5]-CGRP). The protocol:
Production of cAMP in SK-N-MC cells for all analogues except [[…]]-hαCGRP was by a radioreceptor assay, as described previously (Poyner et al., [1998]). […] For [[…]]-hαCGRP, a different clone of SK-N-MC cells was used and cAMP production was measured via AlphaScreen (Perkin Elmer, Wellesley, MA, USA), as described previously ([…] et al., [2010]). This assay was also used to investigate the action of all derivatives at the AMY1(a) receptor and other experiments using Cos 7 cells. […] GraphPad Prism 5.00 or 6.00 (GraphPad Software Inc., San Diego, CA, USA) was used for data fitting. Concentration-response curves were fitted to a sigmoidal function with Hill slope constrained to unity to obtain pEC50 and maximum responses (Emax) values. Displacement curves were analysed to obtain pIC50 values. Schild plots were fitted by linear regression to obtain slope and intercepts. pEC50 and pIC50 values were compared with that of human αCGRP using Dunnett's test with either a normal or repeated measures one-way ANOVA, as appropriate.

Assay [3] has as its target T2, CGRP receptor. Kind of assay: β-arrestin 2 translocation in CHO-K1 cells (PathHunter eXpress). The class given is cell-based. The arrangement: host or cells: CHO-K1 (PathHunter eXpress β-arrestin kit). The protocol: as §1
The target in assay [4] is T3, CGRP receptor (calcitonin receptor-like receptor in complex with receptor activity-modifying protein 1) (human (endogenous in SK-N-MC), UniProt Q16602 23-461; O60894 27-148). Kind of assay: cell-based or functional assay.
T3 sequence (Q16602 23-461, chain 1 of 2): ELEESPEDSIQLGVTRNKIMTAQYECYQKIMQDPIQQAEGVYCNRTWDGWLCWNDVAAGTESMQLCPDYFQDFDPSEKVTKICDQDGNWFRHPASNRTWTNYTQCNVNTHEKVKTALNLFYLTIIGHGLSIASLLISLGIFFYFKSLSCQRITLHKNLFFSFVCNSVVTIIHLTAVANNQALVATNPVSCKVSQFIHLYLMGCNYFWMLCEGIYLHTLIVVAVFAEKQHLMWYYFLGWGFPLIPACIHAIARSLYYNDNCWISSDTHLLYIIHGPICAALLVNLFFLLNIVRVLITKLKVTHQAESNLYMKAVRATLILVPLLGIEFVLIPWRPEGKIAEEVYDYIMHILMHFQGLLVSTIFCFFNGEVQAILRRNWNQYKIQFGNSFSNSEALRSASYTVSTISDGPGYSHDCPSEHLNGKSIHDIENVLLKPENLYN
T3 sequence (O60894 27-148, chain 2 of 2): as the sequence (O60894 27-148) above
Assay [5] addresses AMY_(1(a)) receptor (human HA-tagged CT (a) receptor with human myc-tagged RAMP1) (human) (UniProt O60894).
In assay [6] the target is T3, CGRP receptor (calcitonin receptor-like …). Kind of assay: radioligand binding; displacement of ^125I-CGRP from SK-N-MC cell membranes by unlabelled peptides, microcentrifugation-based binding assay; [Cys^5]-CGRP and its control on another batch of SK-N-MC cells. The following applies: one partner purified.
Where [7] appears, read: 2 h stimulation, means ± SEM, n = 3.

Bridge positions count the residues as written; N and C are the ends. Ends that are not written are not given here.

T2 sequence (Q16602 23-461): as the sequence (Q16602 23-461, chain 1 of 2) above
T2 sequence (O60894 27-148): as the sequence (O60894 27-148) above
Chain of AMY_(1(a)) receptor (human HA-tagged CT (a) receptor with human myc-tagged RAMP1) (human) (O60894 whole entry, looked up): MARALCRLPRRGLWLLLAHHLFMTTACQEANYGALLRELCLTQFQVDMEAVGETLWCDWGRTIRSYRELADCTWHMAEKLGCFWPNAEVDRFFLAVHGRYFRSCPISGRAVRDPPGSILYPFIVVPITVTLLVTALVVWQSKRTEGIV

Take `CC(C)C[C@H](NC(=O)CNC(=O)[C@H](C)NC(=O)[C@H](CC(C)C)NC(=O)[C@H](CCCNC(=N)N)NC(=O)[C@H](Cc1c[nH]cn1)NC(=O)[C@@H](NC(=O)[C@@H](NC(=O)[C@@H]1CSSC[C@H](NC(=O)[C@H](C)N)C(=O)N[C@@H](CC(=O)O)C(=O)N[C@@H]([C@@H](C)O)C(=O)N[C@@H](C)C(=O)N[C@@H](CC(=O)O)C(=O)N1)C(C)C)[C@@H](C)O)C(=O)N[C@@H](CC(C)C)C(=O)N[C@@H](CO)C(=O)N[C@@H](CCCNC(=N)N)C(=O)N[C@@H](CO)C(=O)NCC(=O)NCC(=O)N[C@H](C(=O)N[C@H](C(=O)N[C@@H](CCCCN)C(=O)N[C@@H](CC(N)=O)C(=O)N[C@@H](CC(N)=O)C(=O)N[C@@H](Cc1ccccc1)C(=O)N[C@H](C(=O)N1CCC[C@H]1C(=O)N[C@H](C(=O)N[C@@H](CC(N)=O)C(=O)N[C@H](C(=O)NCC(=O)N[C@@H](CO)C(=O)N[C@@H](CCCCN)C(=O)N[C@@H](C)C(=O)N[C@@H](Cc1ccccc1)C(N)=O)C(C)C)[C@@H](C)O)C(C)C)C(C)C)C(C)C` [[Asp^6]]: at AMY1(a) receptor, the “AMY1(a) receptor-stimulated cAMP pEC50 CGRP analogue” value is “Undetectable”. The same molecule gave an inhibition constant (Ki) on CGRP receptor [1] of 31.6 nM. Besides, at CGRP receptor [2], the “cAMP (SK-N-MC) pEC50 CGRP analogue” value was “Undetectable”. Moreover, the “β-Arrestin (CHO-K1) pEC50 CGRP analogue” value on CGRP receptor [3] (setting [7]) is recorded as “Undetectable”.

Consider `CC(C)C[C@H](NC(=O)CNC(=O)[C@H](C)NC(=O)[C@H](CC(C)C)NC(=O)[C@H](CCCNC(=N)N)NC(=O)[C@H](Cc1c[nH]cn1)NC(=O)[C@@H](NC(=O)[C@@H](NC(=O)[C@@H]1CSSC[C@H](NC(=O)[C@H](C)N)C(=O)N[C@@H](CC(=O)O)C(=O)N[C@@H]([C@@H](C)O)C(=O)N[C@@H](C)C(=O)N[C@@H](CCCCN)C(=O)N1)C(C)C)[C@@H](C)O)C(=O)N[C@@H](CC(C)C)C(=O)N[C@@H](CO)C(=O)N[C@@H](CCCNC(=N)N)C(=O)N[C@@H](CO)C(=O)NCC(=O)NCC(=O)N[C@H](C(=O)N[C@H](C(=O)N[C@@H](CCCCN)C(=O)N[C@@H](CC(N)=O)C(=O)N[C@@H](CC(N)=O)C(=O)N[C@@H](Cc1ccccc1)C(=O)N[C@H](C(=O)N1CCC[C@H]1C(=O)N[C@H](C(=O)N[C@@H](CC(N)=O)C(=O)N[C@H](C(=O)NCC(=O)N[C@@H](CO)C(=O)N[C@@H](CCCCN)C(=O)N[C@@H](C)C(=O)N[C@@H](Cc1ccccc1)C(N)=O)C(C)C)[C@@H](C)O)C(C)C)C(C)C)C(C)C` [[Lys^6]], for which, on AMY1(a) receptor, the “AMY1(a) receptor-stimulated cAMP pEC50 CGRP analogue” value is given as “Undetectable”. The molecule also had a Ki on CGRP receptor [1] of 17.4 nM. In addition, the “cAMP (SK-N-MC) pEC50 CGRP analogue” value at CGRP receptor [2] was “Undetectable”. In addition, the “β-Arrestin (CHO-K1) pEC50 CGRP analogue” value on CGRP receptor [3] (setting [7]) is reported as “Undetectable”.

`CC(C)C[C@H](NC(=O)CNC(=O)[C@H](C)NC(=O)[C@H](CC(C)C)NC(=O)[C@H](CCCNC(=N)N)NC(=O)[C@H](Cc1c[nH]cn1)NC(=O)[C@@H](NC(=O)[C@@H](NC(=O)[C@@H]1CSSC[C@H](NC(=O)[C@H](C)N)C(=O)N[C@@H](CC(=O)O)C(=O)N[C@@H]([C@@H](C)O)C(=O)N[C@@H](C)C(=O)N[C@@H](CO)C(=O)N1)C(C)C)[C@@H](C)O)C(=O)N[C@@H](CC(C)C)C(=O)N[C@@H](CO)C(=O)N[C@@H](CCCNC(=N)N)C(=O)N[C@@H](CO)C(=O)NCC(=O)NCC(=O)N[C@H](C(=O)N[C@H](C(=O)N[C@@H](CCCCN)C(=O)N[C@@H](CC(N)=O)C(=O)N[C@@H](CC(N)=O)C(=O)N[C@@H](Cc1ccccc1)C(=O)N[C@H](C(=O)N1CCC[C@H]1C(=O)N[C@H](C(=O)N[C@@H](CC(N)=O)C(=O)N[C@H](C(=O)NCC(=O)N[C@@H](CO)C(=O)N[C@@H](CCCCN)C(=O)N[C@@H](C)C(=O)N[C@@H](Cc1ccccc1)C(N)=O)C(C)C)[C@@H](C)O)C(C)C)C(C)C)C(C)C` [[Ser^6]]: the EC50 at AMY1(a) receptor (AMY1(a) receptor-stimulated cAMP pEC50 CGRP analogue) was 0.562 nM; at CGRP receptor [2] (cAMP (SK-N-MC) pEC50 CGRP analogue), 53.7 nM; at CGRP receptor [3] (β-Arrestin (CHO-K1) pEC50 CGRP analogue, 2 h stimulation, means ± SEM, n = 3), 8.51 nM. In addition, the “AMY1(a) receptor-stimulated cAMP Emax (% CGRP) CGRP analogue” value at AMY1(a) receptor is 76 ± 19 % CGRP. The molecule also had a Ki at CGRP receptor [1] of 0.759 nM. For the same molecule, the “cAMP (SK-N-MC) Emax (% CGRP) CGRP analogue” value on CGRP receptor [2] was determined as 100 ± 10 % CGRP. On CGRP receptor [3] (setting [7]), the “β-Arrestin (CHO-K1) Emax (% CGRP) CGRP analogue” value turned out to be 57.3 ± 4.8 % CGRP. Besides, at CGRP receptor [3] (CHO-K1, CHO-K1 cells, compared with CGRP, read-out: reduction of Emax, β-arrestin 2 translocation), the maximal response (Emax) was found to be 40%.

B1: [Cys^3]-CGRP (peptide)
chain: ACCTATCVTHRLAGLLSRSGGVVKNNFVPTNVGSKAF-NH2
modifications: disulfide 2-7; N-terminus assumed
SMILES: CC(C)C[C@H](NC(=O)CNC(=O)[C@H](C)NC(=O)[C@H](CC(C)C)NC(=O)[C@H](CCCNC(=N)N)NC(=O)[C@H](Cc1c[nH]cn1)NC(=O)[C@@H](NC(=O)[C@@H](NC(=O)[C@@H]1CSSC[C@H](NC(=O)[C@H](C)N)C(=O)N[C@@H](CS)C(=O)N[C@@H]([C@@H](C)O)C(=O)N[C@@H](C)C(=O)N[C@@H]([C@@H](C)O)C(=O)N1)C(C)C)[C@@H](C)O)C(=O)N[C@@H](CC(C)C)C(=O)N[C@@H](CO)C(=O)N[C@@H](CCCNC(=N)N)C(=O)N[C@@H](CO)C(=O)NCC(=O)NCC(=O)N[C@H](C(=O)N[C@H](C(=O)N[C@@H](CCCCN)C(=O)N[C@@H](CC(N)=O)C(=O)N[C@@H](CC(N)=O)C(=O)N[C@@H](Cc1ccccc1)C(=O)N[C@H](C(=O)N1CCC[C@H]1C(=O)N[C@H](C(=O)N[C@@H](CC(N)=O)C(=O)N[C@H](C(=O)NCC(=O)N[C@@H](CO)C(=O)N[C@@H](CCCCN)C(=O)N[C@@H](C)C(=O)N[C@@H](Cc1ccccc1)C(N)=O)C(C)C)[C@@H](C)O)C(C)C)C(C)C)C(C)C
In the case of B1, in assay [4], the “Emax (% CGRP), cAMP production in SK-N-MC cells” value amounted to 116 % CGRP; the “Emax (% CGRP), β-arrestin 2 translocation in CHO-K1 cells expressing the human CGRP receptor” value amounted to 95 % CGRP; the “pEC50, cAMP production in SK-N-MC cells” value was 8.27; the “pEC50, β-arrestin 2 translocation in CHO-K1 cells expressing the human CGRP receptor” value amounted to 8.43. Moreover, in assay [5], the Emax (% CGRP), cAMP production in Cos 7 cells with the AMY (1(a)) receptor amounted to 108 % CGRP and the pEC50, cAMP production in Cos 7 cells with the AMY (1(a)) receptor is 8.9. Also, the negative logarithm of the Ki (pKi) in assay [6] amounted to 9.54.

B2: [Ser^6]-CGRP (peptide)
chain: ACDTASCVTHRLAGLLSRSGGVVKNNFVPTNVGSKAF-NH2
modifications: disulfide 2-7
Consider B2, for which, in assay [4], the “Emax (% CGRP), cAMP production in SK-N-MC cells” value stood at 100 % CGRP; the “Emax (% CGRP), β-arrestin 2 translocation in CHO-K1 cells expressing the human CGRP receptor” value is 57.3 % CGRP; the “pEC50, cAMP production in SK-N-MC cells” value came to 7.27; the “pEC50, β-arrestin 2 translocation in CHO-K1 cells expressing the human CGRP receptor” value stood at 8.07. In assay [5], this molecule registered an Emax (% CGRP), cAMP production in Cos 7 cells with the AMY (1(a)) receptor of 76 % CGRP and a pEC50, cAMP production in Cos 7 cells with the AMY (1(a)) receptor of 9.25. The pKi in assay [6] was determined as 9.12.
